Data reported in article PMC7565640 (Journal of Virology, 2020).
“And” between values parts separate entries of the source, which are not always exact repeats. Identical values can stand only once. Counter-ions that a name gives are not always drawn.

Experiments:
[1] = system: SARS-CoV-2; type: cell-based; settings: read-out: IC50 (avg)
[2] = system: Vero E6 cells; settings: read-out: CC50 (avg); 3 days
[3] = system: SARS-CoV-2; type: cell-based
[4] = system: SARS-CoV-2; type: cell-based; remark: listed apart in the source
[5] = system: clathrin-mediated endocytosis; settings: cited from earlier work
[6] = system: MERS-CoV spike; settings: cited from earlier work
[7] = system: SARS-CoV spike; settings: cited from earlier work

CCN(CC)Cc1cc(Nc2ccnc3cc(Cl)ccc23)ccc1O [Amodiaquine dihydrochloride dihydrate]
IC50 [1]: 2.59 µM and 4.94 µM

CCN(CC)Cc1cc(Nc2ccnc3cc(Cl)ccc23)ccc1O [Amodiaquine hydrochloride]
CC50 [2]: > 38.6 µM

CCN(CC)CCCC(C)Nc1ccnc2cc(Cl)ccc12 (centres unmarked) [Chloroquine phosphate]
production of SARS-CoV-2 N and RdRp mRNA [3]: inhibit production | IC50 [1]: 46.8 µM | infectious viral particle production of SARS-CoV-2 (TCID50) [4]: can inhibit

CN(C)CCCN1c2ccccc2Sc2ccc(Cl)cc21 [Chlorpromazine hydrochloride]
clathrin-mediated endocytosis [5]: inhibit | IC50 [1]: 4.03 µM | infectious viral particle production of SARS-CoV-2 (TCID50) [4]: can inhibit

O=C1NCN(c2ccccc2)C12CCN(CCCC(c1ccc(F)cc1)c1ccc(F)cc1)CC2 [Fluspirilene]
IC50 [1]: 5.32 µM

CCN(CCO)CCCC(C)Nc1ccnc2cc(Cl)ccc12 (centres unmarked) [Hydroxychloroquine sulfate]
production of SARS-CoV-2 N and RdRp mRNA [3]: inhibit production | IC50 [1]: 11.2 µM | infectious viral particle production of SARS-CoV-2 (TCID50) [4]: can inhibit | time-of-addition: inhibitory activity on infectious-virus production ([4]; 24 h): some reduction in inhibitory activity

Cc1ccc(NC(=O)c2ccc(CN3CCN(C)CC3)cc2)cc1Nc1nccc(-c2cccnc2)n1 [Imatinib mesylate]
MERS-CoV spike-mediated entry [6]: inhibits | SARS-CoV spike-mediated entry [7]: inhibits

OC(c1cc(C(F)(F)F)nc2c(C(F)(F)F)cccc12)C1CCCCN1 (centres unmarked) [Mefloquine hydrochloride]
IC50 [1]: 8.06 µM

CC(CN1c2ccccc2Sc2ccccc21)N(C)C (centres unmarked) [Promethazine hydrochloride]
IC50 [1]: 10.4 µM

CC(C)N1CCN(c2ccc(OCC3COC(Cn4cncn4)(c4ccc(Cl)cc4Cl)O3)cc2)CC1 (centres unmarked) [Terconazole]
IC50 [1]: 16.1 µM

CCSc1ccc2c(c1)N(CCCN1CCN(C)CC1)c1ccccc1S2 [Thiethylperazine maleate]
IC50 [1]: 8.02 µM

CCN(CC)CCOc1ccc(C(O)(Cc2ccc(Cl)cc2)c2ccc(C)cc2)cc1 (centres unmarked) [Triparanol]
IC50 [1]: 6.41 µM
